This series is described as follows: Aqueous solubility of zwitterion-modified hydrophobic peptides in de-ionized water. The series is classed as physicochemical. Particulars: concentration giving a clear solution, peptide labeled at the α-amino group with Z3-PFP. The method, then:
Specifically, four representative hydrophobic peptides, penta(phenylalanine), a tetrapeptide with the sequence Phe-Gly-Gly-Phe, penta(leucine) and penta(isoleucine) were all labeled at the α-amino group with the amine-reactive, zwitterionic reagent Z3-PFP (compound 2c in Figure 1). One such labeling experiment is illustrated in Example 12. The zwitterion-modified peptides were purified by chromatography and their aqueous solubility was assessed by dissolving them in de-ionized water at concentrations that gave clear homogenous solutions. […] Penta(phenylalanine) modified by the zwitterion-containing compound Z3-PFP, compound 2c, dissolved in water and provided a clear solution at a concentration of ~0.5 mM.

Peptide text beside a SMILES is read from it. * marks the point of attachment. X1 = C[N+](C)(CCCC(=O)*)CCCS(=O)(=O)[O-]

The term solubility denotes how much of the substance goes into solution per volume. A low value points to little dissolved substance. In the case of `C[N+](C)(CCCC(=O)N[C@@H](Cc1ccccc1)C(=O)N[C@@H](Cc1ccccc1)C(=O)N[C@@H](Cc1ccccc1)C(=O)N[C@@H](Cc1ccccc1)C(=O)N[C@@H](Cc1ccccc1)C(=O)O)CCCS(=O)(=O)[O-]` (X1-FFFFF-OH), the solubility was not below 500 µM.
In the case of `C[N+](C)(CCCC(=O)N[C@@H](Cc1ccccc1)C(=O)NCC(=O)NCC(=O)N[C@@H](Cc1ccccc1)C(=O)O)CCCS(=O)(=O)[O-]` (X1-FGGF-OH), the solubility was not below 3000 µM.
In the case of `CC[C@H](C)[C@H](NC(=O)[C@@H](NC(=O)[C@@H](NC(=O)[C@@H](NC(=O)[C@@H](NC(=O)CCC[N+](C)(C)CCCS(=O)(=O)[O-])[C@@H](C)CC)[C@@H](C)CC)[C@@H](C)CC)[C@@H](C)CC)C(=O)O` (X1-IIIII-OH), the solubility was not below 100 µM.
In the case of `CC(C)C[C@H](NC(=O)[C@H](CC(C)C)NC(=O)[C@H](CC(C)C)NC(=O)[C@H](CC(C)C)NC(=O)[C@H](CC(C)C)NC(=O)CCC[N+](C)(C)CCCS(=O)(=O)[O-])C(=O)O` (X1-LLLLL-OH) it was not below 100 µM.

Source of the values: patent EP4800020A2, “ZWITTERIONIC REAGENTS” (Siemens Healthcare Diagnostics, Inc., priority 2010, dated 2011).
